The values below come from patent publication US11447500B2, “Thienopyridine derivatives and pharmaceutical composition comprising same” (WELLMARKER BIO CO., LTD., priority 2018, dated 2022).

By pIC50 is commonly meant −log10 of the IC50, conventionally taken in molar units. A higher pIC50 goes with a low IC50.

pIC50: −log10 of the molar value. Bounds are passed on as bounds.

One test relates to HT29 cells. As to the kind of experiment: Cytotoxicity MTS assay, HT29. Type of test: cell-based. The following applies: Homo sapiens, HT-29, 72 hours. As for the experimental part: (§1) In order to confirm the specific cytotoxicity of the drugs, the cultured cells were treated with 0.05% trypsin/EDTA (0.5% trypsin EDTA (10×), Product No.: 15400-054, GIBCO) to detach them from the culture dish, and 3,000 cells (KM12C) or 2,000 cells (HT29, Colo 320 HSR) were dispensed into each well.
(§2) After 24 hours, sample compounds were dissolved in DMSO (Product No.: D8418-250ML, SIGMA) to make 10 mM stock solutions. As the sample compounds, the compounds synthesized in the examples of the present invention and the compounds of the comparative examples were used.
(§3) The cells were treated with the sample compound dilutions, and cultured in a 5% CO2 incubator at 37° C. for 72 hours.
(§4) Thereafter, 20 μL of MTS solution (CellTiter™ 96 Aqueous One Solution Cell Proliferation Assay, Product No.: G3581, Promega) was dispensed into each well and mixed well, and the cells were incubated for 1 to 4 hours at 37° C. in a 5% CO2 incubator.

Test [1] relates to RON-mutated (Δ160) HT-29 colon cancer cell line. Put plainly: Cell killing efficacy, trypan blue exclusion assay, HT-29. Type of test: cell-based. The conditions noted are these: HT29 cell, 48 hours. As for the experimental part: (§5) Two colon cancer cell lines, RON-activated KM12C (80015, KCLB, MEM+10% FBS) and RON-mutated (Δ160) HT-29 (30038, KCLB, RPMI+10% FBS) were prepared in 6-well plates at 5×10^4 cells/well, respectively. After 24 hours, while freshly changing the medium, the sample compounds were added to the wells at a concentration of 1 μM or 5 μM and the plates were allowed to stand for 48 hours.
(§6) As the sample compounds, the compounds synthesized in the examples of the present invention and the compounds of the comparative examples were used.
(§7) After 48 hours, the cell suspensions were collected and centrifuged (1,500 rpm, 4 min.) to obtain the cells, and live cells and dead cells were quantitated (n=2) through a trypan blue (15250-061, Gibco) exclusion assay. The statistical analysis was performed using Excel™ T-test from Microsoft.
(§8) The cell death rates of the compounds of Examples and Comparative Examples were respectively measured and the results are shown in Table 4 as relative ratios to Comparative Example 1.

A further test relates to KM12C cells. As to the kind of experiment: Cytotoxicity MTS assay, KM12C. The following applies: Homo sapiens, 72 hours. Type of test: cell-based. As for the experimental part: as §1, §2, §3, §4
In another test the target is T1, RON kinase (Homo sapiens, UniProt Q04912).
T1 construct: purchased Carna Bioscience
T1 sequence (Q04912 25-1400): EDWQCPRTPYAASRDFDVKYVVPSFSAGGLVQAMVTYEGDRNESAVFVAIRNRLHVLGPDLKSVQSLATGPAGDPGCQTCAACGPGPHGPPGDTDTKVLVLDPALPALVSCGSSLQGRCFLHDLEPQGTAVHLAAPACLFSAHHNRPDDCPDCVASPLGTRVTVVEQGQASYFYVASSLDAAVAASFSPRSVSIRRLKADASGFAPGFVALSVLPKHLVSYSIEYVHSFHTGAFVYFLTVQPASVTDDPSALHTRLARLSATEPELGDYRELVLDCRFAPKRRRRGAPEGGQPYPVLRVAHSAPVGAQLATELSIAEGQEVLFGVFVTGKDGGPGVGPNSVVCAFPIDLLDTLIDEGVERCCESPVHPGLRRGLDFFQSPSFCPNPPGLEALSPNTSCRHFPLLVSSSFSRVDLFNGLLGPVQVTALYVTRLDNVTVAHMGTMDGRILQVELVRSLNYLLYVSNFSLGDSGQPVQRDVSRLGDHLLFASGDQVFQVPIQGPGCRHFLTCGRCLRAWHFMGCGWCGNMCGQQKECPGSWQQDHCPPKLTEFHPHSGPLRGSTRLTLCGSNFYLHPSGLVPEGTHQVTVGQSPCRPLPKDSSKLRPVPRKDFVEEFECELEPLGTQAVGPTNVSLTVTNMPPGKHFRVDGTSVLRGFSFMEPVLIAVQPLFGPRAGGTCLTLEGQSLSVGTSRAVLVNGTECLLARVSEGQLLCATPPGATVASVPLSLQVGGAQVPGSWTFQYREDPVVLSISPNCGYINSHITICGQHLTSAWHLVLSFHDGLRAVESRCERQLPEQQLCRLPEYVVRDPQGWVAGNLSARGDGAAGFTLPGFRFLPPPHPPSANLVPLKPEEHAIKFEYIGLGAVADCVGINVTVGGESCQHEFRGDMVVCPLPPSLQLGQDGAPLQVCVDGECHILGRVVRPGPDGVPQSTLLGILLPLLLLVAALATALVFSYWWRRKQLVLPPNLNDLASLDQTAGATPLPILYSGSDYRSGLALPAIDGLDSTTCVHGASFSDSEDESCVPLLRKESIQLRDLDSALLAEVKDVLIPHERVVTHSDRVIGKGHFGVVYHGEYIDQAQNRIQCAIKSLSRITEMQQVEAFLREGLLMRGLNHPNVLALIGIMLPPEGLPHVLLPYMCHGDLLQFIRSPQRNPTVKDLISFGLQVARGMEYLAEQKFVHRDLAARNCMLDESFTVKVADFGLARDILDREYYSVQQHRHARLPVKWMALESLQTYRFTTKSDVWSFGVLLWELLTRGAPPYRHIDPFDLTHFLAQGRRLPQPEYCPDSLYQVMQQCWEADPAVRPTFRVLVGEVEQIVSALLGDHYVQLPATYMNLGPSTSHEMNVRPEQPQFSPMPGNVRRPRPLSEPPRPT
As to the kind of experiment: RON kinase enzyme inhibitory activity, FRET (TR-FRET) technique. Type of test: biochemical. The following applies: 60 min reaction. As for the experimental part:
The enzyme inhibitory activity (IC50) of the thienopyridine derivative was measured using FRET (fluorescence resonance energy transfer) technique. RON kinase (Carna Bioscience) was diluted with a kinase assay buffer (50 mM HEPES pH 7.5, 1 mM EGTA, 10 mM MgCl2, 2 mM DTT, and 0.01% Tween-20) to a concentration of 2× (0.4 nM) the final reaction concentration and the dilution was added to a 384-well plate at 5 μL/well. As sample compounds, the compounds synthesized in the examples of the present invention and the compounds of the comparative examples were used. The sample compounds were respectively dissolved in 100% DMSO to obtain 1 mM stock solutions, which were then subjected to eight 10-fold serial dilutions. The sample compounds were diluted with the kinase assay buffer to a concentration of 4× the final reaction concentration, and the dilutions were added to the 384-well plate at 2.5 μL/well. The plate was incubated at room temperature for 15 minutes. Next, 0.25 M ATP solution (Sigma Aldrich) was diluted with the kinase reaction buffer to a concentration of 4× (60 μM) the final reaction concentration, and a tyrosine peptide substrate (Perkin-Elmer) was diluted therein to a concentration of 4× (400 nM) the final reaction concentration. The dilution was added to the 384-well plate at 2.5 μL/well. Then, the 384-well plate was incubated at room temperature and the reaction was allowed to proceed for 60 minutes. After 60 minutes, EDTA (Sigma Aldrich) was diluted with TR-FRET detection buffer (Perkin-Elmer) to a concentration of 4× (40 mM) the final reaction concentration. A europium-labeled anti-phosphotyrosine antibody (Perkin-Elmer) was diluted in the above EDTA dilution to a concentration of 4× (8 nM) the final reaction concentration to prepare a stop solution of the RON kinase reaction. The stop solution was added to the 384-well plate at 10 μL/well to terminate the reaction, and the plate was incubated at room temperature for 60 minutes. Thereafter, the plate was read on Victor X5 plate reader (Perkin-Elmer). At this time, the excitation wavelength was 340 nm and the emission wavelengths were 620 nm and 665 nm. The IC50 values of the sample compounds were determined using GraphPad Prism™ 5 by expressing the emission energy at 665 nm as a function of the sample compound concentration.

The subject of test [2] is RON-activated KM12C colon cancer cell line. As to the kind of experiment: Cell killing efficacy, trypan blue exclusion assay, KM12C. The test is classed as cell-based. The conditions noted are these: 48 hours. As for the experimental part: as §5, §6, §7, §8

Regarding `Cc1ccc(C(=O)Nc2ccc(Oc3cc4cnn(C)c4cc3-c3cn[nH]c3)c(F)c2)c(=O)n1-c1ccc(F)cc1` [Comp. Ex. 3, N-(3-fluoro-4-(1-methyl-6-(1H-pyrazol-4-yl)-1H-indazol-5-yloxy)phenyl)-1-(4-fluorophenyl)-6-methyl-2-oxo-1,2-dihydropyridine-3-carboxamide, reference compound], the values for the negative logarithm of the IC50 (pIC50) in the test with HT29 cells, in the test with KM12C cells and on RON kinase were 4.97, 6.93 and 8.43, respectively. The “Cell death rate (Relative to Comp. Ex. 1)” value in test [1] (1 μM) is given as “x 0.83”; in test [1] (5 μM), “x 0.52”; in test [2] (1 μM), “x 0.54”; in test [2] (5 μM), “x 0.33”.
With `CCOc1ccn(-c2ccccc2)c(=O)c1C(=O)Nc1ccc(Oc2ccnc3cc(-c4ccc(CN5CCN(C)CC5)cn4)sc23)c(F)c1.Cl` [Example 34, Hydrochloride], the pIC50 in the test with HT29 cells is 6.89; with KM12C cells it was 8.22; on RON kinase it was 9.64.
Turning to `CCOc1ccn(-c2ccccc2)c(=O)c1C(=O)Nc1ccc(Oc2ccnc3cc(-c4ccc(CN5CCOCC5)cn4)sc23)c(F)c1.Cl` [Example 32, 4-ethoxy-N-[3-fluoro-4-({2-[5-(morpholinomethyl)pyridin-2-yl]thieno[3,2-b]pyridin-7-yl}oxy)phenyl]-2-oxo-1-phenyl-1,2-dihydropyridine-3-carboxamide Hydrochloride], the pIC50 in the test on HT29 cells was 6.49; in the test on KM12C cells it was 8.52; on RON kinase, 9.09. In addition, the “Cell death rate (Relative to Comp. Ex. 1)” value in test [1] (1 μM) is reported as “x 1.55”; in test [1] (5 μM) it was “x 1.45”; in test [2] (1 μM), “x 1.52”; in test [2] (5 μM), “x 1.11”.
Regarding `COCCNCc1ccc(-c2cc3nccc(Oc4ccc(NC(=O)c5ccc(C)n(-c6ccc(F)cc6)c5=O)cc4F)c3s2)nc1.Cl` [Example 22, N-(3-fluoro-4-{[2-(5-{[(2-methoxyethyl)amino]methyl}pyridin-2-yl)thieno[3,2-b]pyridin-7-yl]oxy}phenyl)-1-(4-fluorophenyl)-6-methyl-2-oxo-1,2-dihydropyridine-3-carboxamide Hydrochloride], the results for the pIC50 in the test with HT29 cells, with KM12C cells and against RON kinase were 5.93, 9.00 and 9.36, respectively. The “Cell death rate (Relative to Comp. Ex. 1)” value in test [1] (1 μM) is “x 1.07”; in test [1] (5 μM), “x 1.71”; in test [2] (1 μM), “x 1.48”; in test [2] (5 μM), “x 1.61”.
As for `COCCNCc1ccc(-c2cc3nccc(Oc4ccc(NC(=O)c5ccnn(-c6ccc(F)cc6)c5=O)cc4F)c3s2)nc1.Cl` [Example 20, N-(3-fluoro-4-[{2-(5-[{(2-methoxyethyl)amino}methyl]pyridin-2-yl)thieno[3,2-b]pyridin-7-yl}oxy]phenyl)-2-(4-fluorophenyl)-3-oxo-2,3-dihydropyridazine-4-carboxamide Hydrochloride], the negative logarithm of the IC50 (pIC50) in the test on HT29 cells is below 5.00; in the test with KM12C cells, 8.00; against RON kinase it was 8.61. Moreover, the “Cell death rate (Relative to Comp. Ex. 1)” value is listed as “x 0.75” in test [1] (1 μM), “x 1.13” in test [1] (5 μM), “x 1.07” in test [2] (1 μM) and “x 1.11” in test [2] (5 μM).
`COCCNCc1ccc(-c2cc3nccc(Oc4ccc(NC(=O)c5c(C)ccn(-c6ccc(F)cc6)c5=O)cc4F)c3s2)nc1.Cl` [Example 25, N-(3-fluoro-4-{[2-(5-{[(2-methoxyethyl)amino]methyl}pyridin-2-yl)thieno[3,2-b]pyridin-7-yl]oxy}phenyl)-1-(4-fluorophenyl)-4-methyl-2-oxo-1,2-dihydropyridine-3-carboxamide Hydrochloride]: the negative logarithm of the IC50 (pIC50) in the test with HT29 cells is 5.86; in the test on KM12C cells it was 7.60; against RON kinase, 9.64. Further, the “Cell death rate (Relative to Comp. Ex. 1)” value in test [1] (1 μM) is listed as “x 3.13”; in test [1] (5 μM), “x 2.97”; in test [2] (1 μM) it was “x 0.44”; in test [2] (5 μM), “x 0.69”.
Regarding `CCOc1ccn(-c2ccc(F)cc2)c(=O)c1C(=O)Nc1ccc(Oc2ccnc3cc(-c4ccc(CN5CCN(C)CC5)cn4)sc23)c(F)c1.Cl` [Example 33, 4-ethoxy-N-{3-fluoro-4-[(2-{5-[(4-methylpiperazin-1-yl)methyl]pyridin-2-yl}thieno[3,2-b]pyridin-7-yl)oxy]phenyl}-1-(4-fluorophenyl)-2-oxo-1,2-dihydropyridine-3-carboxamide Hydrochloride], the values for the pIC50 with HT29 cells, in the test on KM12C cells and at RON kinase were 6.47, 8.05 and 9.59, respectively. In addition, the “Cell death rate (Relative to Comp. Ex. 1)” value is given as “x 2.01” in test [1] (1 μM), “x 1.50” in test [1] (5 μM), “x 1.99” in test [2] (1 μM) and “x 2.13” in test [2] (5 μM).
For `CCOc1ccn(-c2ccccc2)c(=O)c1C(=O)Nc1ccc(Oc2ccnc3cc(-c4ccc(CNCCOC)cn4)sc23)c(F)c1.Cl` [Example 1, 4-ethoxy-N-(3-fluoro-4-{[2-(5-{[(2-methoxyethyl)amino]methyl}pyridin-2-yl)thieno[3,2-b]pyridin-7-yl]oxy}phenyl)-2-oxo-1-phenyl-1,2-dihydropyridine-3-carboxamide hydrochloride], the pIC50 is 5.96 with HT29 cells, 7.35 with KM12C cells and 9.29 at RON kinase. Besides, the “Cell death rate (Relative to Comp. Ex. 1)” value was “x 4.06” in test [1] (1 μM), “x 2.41” in test [1] (5 μM), “x 3.37” in test [2] (1 μM) and “x 2.47” in test [2] (5 μM).
As for `COCCNCc1ccc(-c2cc3nccc(Oc4ccc(NC(=O)c5ccc(C)n(-c6ccccc6)c5=O)cc4F)c3s2)nc1.Cl` [Example 21, N-(3-fluoro-4-{[2-(5-{[(2-methoxyethyl)amino]methyl}pyridin-2-yl)thieno[3,2-b]pyridin-7-yl]oxy}phenyl)-6-methyl-2-oxo-1-phenyl-1,2-dihydropyridine-3-carboxamide Hydrochloride], the negative-log IC50 (pIC50) in the test on HT29 cells is 5.89; in the test with KM12C cells, 5.82; at RON kinase, 9.25. In addition, the “Cell death rate (Relative to Comp. Ex. 1)” value is “x 1.30” in test [1] (1 μM), “x 4.10” in test [1] (5 μM), “x 0.93” in test [2] (1 μM) and “x 4.06” in test [2] (5 μM).
Turning to `CCOc1ccn(-c2ccc(F)cc2)c(=O)c1C(=O)Nc1ccc(Oc2ccnc3cc(-c4ccc(CN5CCOCC5)cn4)sc23)c(F)c1.Cl` [Example 31, 4-ethoxy-N-[3-fluoro-4-({2-[5-(morpholinomethyl)pyridin-2-yl]thieno[3,2-b]pyridin-7-yl}oxy)phenyl]-1-(4-fluorophenyl)-2-oxo-1,2-dihydropyridine-3-carboxamide Hydrochloride], the pIC50 was 6.22 in the test on HT29 cells, 8.15 in the test with KM12C cells and 9.41 against RON kinase. In addition, the “Cell death rate (Relative to Comp. Ex. 1)” value in test [1] (1 μM) was “x 2.11”; in test [1] (5 μM), “x 1.21”; in test [2] (1 μM) it was “x 1.52”; in test [2] (5 μM) it was “x 1.17”.
